# Measurements published in ChEMBL document CHEMBL1201862, “PubChem BioAssay data set” (2004).
#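 Cultured in 96-well plates, cells were exposed to test compound for 48 hours across five concentrations. GI50 is the concentration that inhibits growth by half.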 The source made the active and inactive calls. Rule as the data show it: active = GI50 up to about 1.1 µM and inactive = higher.
# Key:
# Assay in all cases: NCI anticancer screen, dose series, 48 h
# [1] = system: MDA-N
# [2] = system: HOP-62
# [3] = system: UACC-62
# [4] = system: K562
# [5] = system: RPMI-8226
# [6] = system: SK-OV-3
# [7] = system: HL-60
# [8] = system: SK-MEL-2
# [9] = system: MDA-MB-231
# [10] = system: KM12
# [11] = system: IGROV-1
# [12] = system: SF-268
# [13] = system: SR
# [14] = system: OVCAR-8
# [15] = system: HCT-15
# [16] = system: SNB-75
# [17] = system: SNB-19
# [18] = system: Hs-578T
# [19] = system: A549
# [20] = system: CAKI-1
# [21] = system: T47D
# [22] = system: OVCAR-4
# [23] = system: M14
# [24] = system: COLO 205
# [25] = system: HCT-116
# [26] = system: NCI-H23
# [27] = system: HCC 2998
# [28] = system: SF-539
# [29] = system: UO-31
# [30] = system: OVCAR-5
# [31] = system: MDA-MB-435
# [32] = system: LOX IMVI
# [33] = system: CCRF-CEM
# [34] = system: SN12C
# [35] = system: SF-295
# [36] = system: RXF 393
# [37] = system: HT-29
# [38] = system: TK-10
# [39] = system: OVCAR-3
# [40] = system: Malme-3M
# [41] = system: SK-MEL-28
# [42] = system: EKVX
# [43] = system: NCI-H226
# [44] = system: NCI-H460
# [45] = system: 786-0
# [46] = system: SK-MEL-5
# [47] = system: NCI-H522
# [48] = system: MCF7
# [49] = system: A498
# [50] = system: MOLT-4
# [51] = system: PC-3
# [52] = system: NCI/ADR-RES
# [53] = system: DU-145
# [54] = system: ACHN
# [55] = system: U-251
# [56] = system: SW-620
# [57] = system: UACC-257
# [58] = system: HOP-92
smiles,measurement,setting,value
COc1cc2c(c(OC)c1OC)-c1ccc(OC)c(=O)cc1C(NC(=O)CCCCCNc1ccc(N=[N+]=[N-])cc1[N+](=O)[O-])CC2 (stereo unspecified),GI50,[1],< 0.01 µM (active)
same,GI50,[2],< 0.01 µM (active)
same,GI50,[3],< 0.01 µM (active)
same,GI50,[4],< 0.01 µM (active)
same,GI50,[5],< 0.01 µM (active)
same,GI50,[6],< 0.01 µM (active)
same,GI50,[7],< 0.01 µM (active)
same,GI50,[8],< 0.01 µM (active)
same,GI50,[9],< 0.01 µM (active)
same,GI50,[10],< 0.01 µM (active)
same,GI50,[11],< 10 nM (active)
same,GI50,[12],< 0.01 µM (active)
same,GI50,[13],< 0.01 µM (active)
same,GI50,[14],< 0.01 µM (active)
same,GI50,[15],41.8 nM
same,GI50,[16],0.246 µM (active)
same,GI50,[17],< 0.01 µM (active)
same,GI50,[18],< 0.01 µM (active)
same,GI50,[19],< 0.01 µM (active)
same,GI50,[20],0.299 µM (active)
same,GI50,[21],20.5 µM (inactive)
same,GI50,[22],1.56 µM (inactive)
same,GI50,[23],< 0.01 µM (active)
same,GI50,[24],< 0.01 µM (active)
same,GI50,[25],< 0.01 µM (active)
same,GI50,[26],< 0.01 µM (active)
same,GI50,[27],< 0.01 µM (active)
same,GI50,[28],< 0.01 µM (active)
same,GI50,[29],1.47 µM (inactive)
same,GI50,[30],< 0.01 µM (active)
same,GI50,[31],< 0.01 µM (active)
same,GI50,[32],< 0.01 µM (active)
same,GI50,[33],< 0.01 µM (active)
same,GI50,[34],< 0.01 µM (active)
same,GI50,[35],< 0.0118 µM (active)
same,GI50,[36],< 0.01 µM (active)
same,GI50,[37],< 0.01 µM (active)
same,GI50,[38],0.0426 µM (active)
same,GI50,[39],< 0.01 µM (active)
same,GI50,[40],< 0.01 µM (active)
same,GI50,[41],< 0.01 µM (active)
same,GI50,[42],< 0.0136 µM (active)
same,GI50,[43],< 0.01 µM (active)
same,GI50,[44],< 0.01 µM (active)
same,GI50,[45],< 0.01 µM (active)
same,GI50,[46],< 0.01 µM (active)
same,GI50,[47],< 10 nM (active)
same,GI50,[48],< 0.01 µM (active)
same,GI50,[49],< 0.01 µM (active)
same,GI50,[50],< 0.01 µM (active)
same,GI50,[51],< 0.01 µM (active)
same,GI50,[52],0.422 µM (active)
same,GI50,[53],< 0.01 µM (active)
same,GI50,[54],0.0271 µM (active)
same,GI50,[55],< 0.01 µM (active)
same,GI50,[56],< 0.01 µM (active)
O=C(O)C1C2C=CC(C2)C1c1ccccc1 (stereo unspecified),GI50,[57],> 100 µM (inactive)
same,GI50,[1],> 100 µM (inactive)
same,GI50,[2],> 100 µM (inactive)
same,GI50,[58],> 100 µM (inactive)
same,GI50,[3],> 100 µM (inactive)
same,GI50,[4],> 100 µM (inactive)
same,GI50,[5],> 100 µM (inactive)
same,GI50,[6],> 100 µM (inactive)
same,GI50,[7],> 100 µM (inactive)
same,GI50,[8],31.6 µM (inactive)
same,GI50,[9],> 100 µM (inactive)
same,GI50,[10],> 100 µM (inactive)
same,GI50,[12],> 100 µM (inactive)
same,GI50,[13],> 100 µM (inactive)
same,GI50,[14],> 100 µM (inactive)
same,GI50,[15],> 100000 nM
same,GI50,[16],> 100 µM (inactive)
same,GI50,[17],> 100 µM (inactive)
same,GI50,[18],> 100 µM (inactive)
same,GI50,[19],> 100 µM (inactive)
same,GI50,[20],> 100 µM (inactive)
same,GI50,[21],> 100 µM (inactive)
same,GI50,[23],> 100 µM (inactive)
same,GI50,[24],> 100 µM (inactive)
same,GI50,[25],> 100 µM (inactive)
same,GI50,[26],> 100 µM (inactive)
same,GI50,[27],> 100 µM (inactive)
same,GI50,[28],> 100 µM (inactive)
same,GI50,[29],> 100 µM (inactive)
same,GI50,[30],> 100 µM (inactive)
same,GI50,[31],> 100 µM (inactive)
same,GI50,[32],> 100 µM (inactive)
same,GI50,[33],> 100 µM (inactive)
same,GI50,[34],> 100 µM (inactive)
same,GI50,[35],> 100 µM (inactive)
same,GI50,[36],> 100 µM (inactive)
same,GI50,[37],> 100 µM (inactive)
same,GI50,[38],> 100 µM (inactive)
same,GI50,[39],> 100 µM (inactive)
same,GI50,[40],> 100 µM (inactive)
same,GI50,[41],> 100 µM (inactive)
same,GI50,[42],> 100 µM (inactive)
same,GI50,[43],> 100 µM (inactive)
same,GI50,[44],> 100 µM (inactive)
same,GI50,[45],> 100 µM (inactive)
same,GI50,[46],> 100 µM (inactive)
same,GI50,[48],> 100 µM (inactive)
same,GI50,[49],> 100 µM (inactive)
same,GI50,[50],> 100 µM (inactive)
same,GI50,[51],> 100 µM (inactive)
same,GI50,[52],> 100 µM (inactive)
same,GI50,[53],> 100 µM (inactive)
same,GI50,[54],> 100 µM (inactive)
same,GI50,[55],> 100 µM (inactive)
same,GI50,[56],> 100 µM (inactive)
